Results from patent US8580815B2, “Derivatives of azaindoles as inhibitors of protein kinases ABL and SRC” (Oribase Pharma, priority 2009, dated 2013).
Like-named read-outs stand apart in the source and are kept apart here.

Assays:
Abl WT = Abl WT (Homo sapiens (Human), UniProt P00519); assay: Reaction Biology Corp. kinase assay, Abl WT; format: biochemical; settings: compounds tested by Reaction Biology Corp.; for inhibition at 10 µM: read-out: % inhibition of kinase activity, Abl WT (category)
Procedure: (§1) 4 compounds were tested for their capacity to inhibit various mutated kinases AbI (American company, Reaction Biology Corp.).

Src kinase = Src kinase (Homo sapiens (Human), UniProt P12931); assay: Reaction Biology Corp. kinase assay, Src; settings: compounds tested by Reaction Biology Corp.; for inhibition at 10 µM: read-out: % inhibition of kinase activity, Src (category), 10 μM
Sequence of Src kinase (P12931 whole entry, looked up): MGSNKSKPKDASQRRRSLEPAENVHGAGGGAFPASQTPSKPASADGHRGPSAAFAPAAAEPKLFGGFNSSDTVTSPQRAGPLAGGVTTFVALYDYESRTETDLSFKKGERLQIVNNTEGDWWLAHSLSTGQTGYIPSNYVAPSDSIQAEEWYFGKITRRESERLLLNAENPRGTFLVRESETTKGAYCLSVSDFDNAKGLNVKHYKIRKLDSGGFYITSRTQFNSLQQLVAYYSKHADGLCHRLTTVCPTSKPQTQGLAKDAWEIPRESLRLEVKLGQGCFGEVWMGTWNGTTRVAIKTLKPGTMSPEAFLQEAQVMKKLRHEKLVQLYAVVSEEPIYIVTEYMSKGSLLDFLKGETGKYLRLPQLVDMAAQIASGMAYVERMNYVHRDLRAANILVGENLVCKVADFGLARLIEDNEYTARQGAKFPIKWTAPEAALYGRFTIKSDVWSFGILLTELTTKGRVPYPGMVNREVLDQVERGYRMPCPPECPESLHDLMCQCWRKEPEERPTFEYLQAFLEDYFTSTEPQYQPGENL

Abl T315I = Abl T315I (Homo sapiens (Human), UniProt P00519, T315I); assay: Reaction Biology Corp. kinase assay, mutated Abl T315I; format: biochemical; settings: 10 μM; Reaction Biology Corp.; read-out: % inhibition of kinase activity, Abl T315I (category)
Procedure: as §1

Abl kinase (h) = Abl kinase (h) (Homo sapiens (Human), UniProt P00519); assay: Cerep kinase profiling, HTRF assay, Abl kinase; format: biochemical
Procedure: The inhibitory activity of the compounds of the chemical series on different protein kinases was evaluated by Cerep (Cerep Kinase Profiling Service; www.cerep.com). The kinases used in the tests in vitro are human recombinant proteins expressed in human cells, insect cells or in bacteria. […] The activity of the kinase was then detected by an HTRF assay. The HTRF assay (CisBio International) is based on fluorescence transfer, using Europium (Eu3+) cryptate and XL665 respectively as donor and acceptor. When the biotinylated or tagged substrate is phosphorylated by the kinase, it reacts with a cryptate-labelled phosphospecific antibody. Addition of Streptavidin-XL665, SA-XL665, (or anti-tag antibody XL665) leads to juxtaposition of the cryptate and of the fluorophore XL665, which is reflected in fluorescence resonance energy transfer (FRET). The intensity of FRET depends on the quantity of cryptate-labelled antibody bound to the substrate, which is proportional to the quantity of phosphorylated substrate (Mathis, G. Probing molecular interactions with homogeneous techniques based on rare earth cryptates and fluorescence energy transfer.

[1] = 10 μM, compounds tested by Cerep, read-out: % inhibition of kinase activity, Abl WT (category)
[2] = Table 6, compound incubated at 10 μM, read-out: Percentage inhibition of kinase Abl
[3] = Table 9, Cerep, 5 concentrations 10^−10 M to 10^−4 M, read-out: IC50 in M Abl
[4] = compounds tested by Cerep, read-out: IC50 on kinase Abl WT (category)

| SMILES | inhibition at 10 µM (Abl kinase (h); [1]) [%] | inhibition at 10 µM (Abl kinase (h); [2]) [%] | also measured |
| --- | --- | --- | --- |
| COC(=O)c1cc2cc(Nc3ccc(I)cc3)cnc2[nH]1 [ND0108] | – | – | inhibition at 10 µM (Abl WT): 10 to 50%; inhibition at 10 µM (Src kinase): 10 to 50%; inhibition at 10 µM (Abl T315I): 10 to 50% |
| COC(=O)c1cc2cc(NCc3ncc[nH]3)cnc2[nH]1 [ND0095] | – | – | inhibition at 10 µM (Abl WT): 10 to 50%; inhibition at 10 µM (Src kinase): 10 to 50%; inhibition at 10 µM (Abl T315I): < 10% |
| COC(=O)c1cc2cc(Nc3ccc(Br)cc3)cnc2[nH]1 [ND0107] | – | – | inhibition at 10 µM (Src kinase): 10 to 50% |
| COC(=O)c1cc2cc(NCc3cc[nH]n3)cnc2[nH]1 [ND0098] | – | – | inhibition at 10 µM (Abl WT): > 50%; IC50 (Abl WT; ATP at 10 μM, read-out: IC50 on kinase Abl WT (category)): 0.1 to 10 µM; IC50 (Src kinase; IC50 on kinase Src (category), ATP at 10 μM): 0.1 to 10 µM; inhibition at 10 µM (Src kinase): > 50%; inhibition at 10 µM (Abl T315I): < 10% |
| CN(C)CCCNC(=O)c1cc2cc(NC(=O)c3ccc4nccnc4c3)cnc2[nH]1 [ND0012, N-(2-(3-(dimethylamino)propylcarbamoyl)-1H-pyrrolo[2,3-b]pyridin-5-yl)quinoxaline-6-carboxamide] | < 10 | 8 | – |
| COC(=O)c1cc2cc(NC(=O)c3cccc(F)c3F)cnc2[nH]1 [ND0061, Methyl 5-(2,3-difluorobenzamido)-1H-pyrrolo[2,3-b]pyridine-2-carboxylate] | 10 to 50 | 46 | – |
| COC(=O)c1cc2cc(NC(=O)C3CC3)cnc2[nH]1 [ND0044, Methyl 5-(cyclopropanecarboxamido)-1H-pyrrolo [2,3-b]pyridine-2-carboxylate] | < 10 | 6 | – |
| Cc1nc(-c2cccc(C(=O)Nc3cnc4[nH]c(C(=O)NCCCN(C)C)cc4c3)c2)cs1 [ND0011, 5-(3-(2-methylthiazol-4-yl)benzamido)-N-(3-(dimethylamino)propyl)-1H-pyrrolo[2,3-b]pyridine-2-carboxamide] | < 10 | 6 | IC50 (Abl kinase (h); [3]): > 100 µM; IC50 (Abl kinase (h); [4]): > 10 µM |
| COC(=O)c1cc2cc(Nc3ccc(OC)cc3)cnc2[nH]1 [ND0109] | – | – | inhibition at 10 µM (Src kinase): 10 to 50% |
| COC(=O)c1cc2cc(NC(=O)c3ccccc3Oc3ccccc3)cnc2[nH]1 [ND0059, Methyl 5-(2-phenoxybenzamido)-1H-pyrrolo[2,3-b]pyridine-2-carboxylate] | < 10 | 5 | – |
| COC(=O)c1cc2cc(Nc3cccc(OC)c3)cnc2[nH]1 [ND0102] | – | – | inhibition at 10 µM (Src kinase): 10 to 50% |
| COC(=O)c1cc2cc(NC(=O)c3cccc(F)c3)cnc2[nH]1 [ND0053, Methyl 5-(3-fluorobenzamido)-1H-pyrrolo[2,3-b]pyridine-2-carboxylate] | 10 to 50 | 33 | – |
| CCCSc1ncccc1C(=O)Nc1cnc2[nH]c(C(=O)OC)cc2c1 [ND0060, Methyl 5-(2-(propylthio)pyridine-3-carboxamido)-1H-pyrrolo[2,3-b]pyridine-2-carboxylate] | 10 to 50 | 16 | – |
| COC(=O)c1cc2cc(NC(=O)c3ccc(-c4csc(C)n4)cc3)cnc2[nH]1 [ND0054, Methyl 5-(4-(2-methylthiazol-4-yl)benzamido)-1H-pyrrolo[2,3-b]pyridine-2-carboxylate] | 10 to 50 | 15 | – |
| O=C(Nc1cnc2[nH]c(C(=O)N3CCOCC3)cc2c1)c1cc([N+](=O)[O-])ccc1F [ND0010, 5-(2-fluoro-5-nitrobenzamido)-2-morpholinocarbonyl-1H-pyrrolo[2,3-b]pyridine] | < 10 | 1 | IC50 (Abl kinase (h); [3]): > 100 µM; IC50 (Abl kinase (h); [4]): > 10 µM |
| CCC(=O)Nc1cnc2[nH]c(C(=O)OC)cc2c1 [ND0046, Methyl 5-(propionamido)-1H-pyrrolo[2,3-b]pyridine-2-carboxylate] | 10 to 50 | 49 | – |
| O=C(Nc1cnc2[nH]c(C(=O)NCCN3CCOCC3)cc2c1)c1cccc(F)c1 [ND0006, 5-(3-fluorobenzamido)-N-(2-morpholinoethyl)-1H-pyrrolo[2,3-b]pyridine-2-carboxamide] | 10 to 50 | 33 | IC50 (Abl kinase (h); [3]): > 100 µM; IC50 (Abl kinase (h); [4]): > 10 µM |
| COc1ccc(OC(=O)c2cc3cc(NC(=O)c4ccccc4)cnc3[nH]2)cc1 [ND0004, 5-(benzamido)-1H-pyrrolo[2,3-b]pyridine-2-4-methoxyphenyl carboxylate] | 10 to 50 | 31 | – |
| COC(=O)c1cc2cc(NC(=O)c3cccc(C#N)c3)cnc2[nH]1 [ND0051, Methyl 5-(3-cyanobenzamido)-1H-pyrrolo[2,3-b]pyridine-2-carboxylate] | 10 to 50 | 20 | – |
| COC(=O)c1cc2cc(NC(=O)C(C)C)cnc2[nH]1 [ND0045, Methyl 5-(isobutyramido)-1H-pyrrolo[2,3-b]pyridine-2-carboxylate] | > 50 | 58 | – |
| COC(=O)c1cc2cc(Nc3cccc(Br)c3)cnc2[nH]1 [ND0104] | – | – | inhibition at 10 µM (Src kinase): < 10% |
| COC(=O)c1cc2cc(NC(=O)c3cccnc3)cnc2[nH]1 [ND0050, Methyl 5-(nicotinamido)-1H-pyrrolo[2,3-b]pyridine-2-carboxylate] | 10 to 50 | 27 | – |

Second part, led by results:

| inhibition at 10 µM (Abl kinase (h); [1]) [%] | inhibition at 10 µM (Abl kinase (h); [2]) [%] | SMILES | also measured |
| --- | --- | --- | --- |
| 10 to 50 | 14 | O=C(Nc1cnc2[nH]c(CNCc3ccccc3)cc2c1)c1ccccc1Br [ND0028] | – |
| 10 to 50 | 29 | O=C(Nc1cnc2[nH]c(CNc3cccc(Br)c3)cc2c1)c1ccccc1Br [ND0027] | – |
| 10 to 50 | 10 | NC(=O)c1cc2cc(NC(=O)c3cccc(F)c3)cnc2[nH]1 [ND0005, 5-(3-Fluorobenzamido)-1H-pyrrolo[2,3-b]pyridine-2-carboxamide] | – |
| 10 to 50 | 14 | COc1cccc(NCc2cc3cc(NC(=O)c4ccccc4Br)cnc3[nH]2)c1 [ND0041] | – |
| 10 to 50 | 47 | N#Cc1ccccc1NCc1cc2cc(NC(=O)c3ccccc3Br)cnc2[nH]1 [ND0036] | – |
| 10 to 50 | 39 | O=C(Nc1cnc2[nH]c(C[C@H]3CCCO3)cc2c1)c1ccccc1Br [ND0025] | – |
| 10 to 50 | 17 | O=C(Nc1cnc2[nH]c(CNc3cccc([N+](=O)[O-])c3)cc2c1)c1ccccc1Br [ND0034] | – |
| 10 to 50 | 21 | Cc1cccc(NCc2cc3cc(NC(=O)c4ccccc4Br)cnc3[nH]2)c1 [ND0040] | – |
| < 10 | 6 | COC(=O)c1cc2cc(NC(=O)c3cccc4c3OCC4)cnc2[nH]1 [ND0062, Methyl 5-(2,3-dihydrobenzofuran-7-carboxamido)-1H-pyrrolo[2,3-b]pyridine-2-carboxylate] | – |
| < 10 | 8 | CC1CCCCC1NCc1cc2cc(NC(=O)c3ccccc3Br)cnc2[nH]1 (stereo not shown) [ND0026] | – |
| > 50 | 82 | O=C(Nc1cnc2[nH]c(CO)cc2c1)c1ccccc1Br [ND0019, 2-bromo-N-(2-(hydroxymethyl)-1H-pyrrolo[2,3-b]pyridin-5-yl)benzamide] | – |
| > 50 | 86 | O=C(Nc1cnc2[nH]c(Cn3ccnc3)cc2c1)c1ccccc1Br [ND0031] | IC50 (Abl kinase (h); [3]): 4 µM; IC50 (Abl kinase (h); [4]): 0.1 to 10 µM |
| 10 to 50 | 27 | N#Cc1ccc(NCc2cc3cc(NC(=O)c4ccccc4Br)cnc3[nH]2)cc1 [ND0032] | – |
